The source of these data is patent US20220153732A1, “PROTEIN SECRETION INHIBITORS” (KEZAR LIFE SCIENCES, priority 2019, published 2022).

Holding throughout (assay type): cell-based
For assay [1], the system named is PD1-ss+10aa/Gaussia Luciferase. Briefly: Dox-Induced PD1-ss-Gluc Assay. The following applies: 24 hr doxycycline induction, 293FRT/TO cells, Gaussia luciferase signal; read-out: 24 hr Dox Inducible PD1ssGluc 293FRT/TO: Mean IC50. In short, it runs like this:
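Stable cell line carrying PD1-ss+10aa/Gaussia luciferase cDNA under T-REx (doxycycline-inducible) control, plated the day before assay. Compound dilutions in DMSO/media containing doxycycline added and incubated at 37° C, 5% CO2. Undefined stereocentres: data refer to stereoisomer mixtures.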

For assay [2], the system named is TNFα-FL/Gaussia Luciferase. Put plainly: Dox Induced TNFα-FL-Gluc Assay. The settings on record: 24 hr doxycycline induction, 293FRT/TO cells, Gaussia luciferase signal; read-out: 24 hr Dox Inducible TNFaFLGluc 293FRT/TO: Mean IC50. The essentials:
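A stable T-REx cell line carrying doxycycline-inducible TNFα-FL/Gaussia luciferase was plated the day before assay. Compound dilutions in DMSO/media containing doxycycline were then added and incubated at 37° C, 5% CO2.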

Assay [3] relates to HER3-ss+4aa/Gaussia Luciferase. Briefly: Dox-Induced Her3-ss-Gluc Assay. The following applies: 24 hr doxycycline induction, 293FRT/TO cells, Gaussia luciferase signal; read-out: 24 hr Dox Inducible Her3(ss + 4)Gluc 293FRT/TO: Mean IC50. In short, it runs like this: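 Stable T-REx cell line carrying a doxycycline-regulated HER3-ss+4aa/Gaussia luciferase insert, plated the day before assay. Compound dilutions in DMSO/media with doxycycline added, then incubated at 37° C., 5% CO2. Stereoisomer mixtures tested where stereochemistry is not drawn.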

The test system of assay [4] is IL-2-FL/Gaussia Luciferase. Put plainly: Dox Induced IL2-FL-Gluc Assay. The settings on record: 24 hr doxycycline induction, 293FRT/TO cells, Gaussia luciferase signal; read-out: 24 hr Dox Inducible IL2FLGIuc 293FRT/TO: Mean IC50. In short, it runs like this:
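Stable T-REx cell line expressing doxycycline-inducible IL-2-FL/Gaussia luciferase cDNA, plated the day before assay. Compound dilutions in DMSO/media containing doxycycline added and incubated at 37° C., 5% CO2. Unspecified stereochemistry means data refer to a stereoisomer mixture.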

Assay [5] has as its system human multiple myeloma cell line NCI-H929. Put plainly: H929 Cell Viability Assay. The following applies: 48 hr, NCI-H929 cells, Celltiter-Glo, read-out: 48 hr H929 Viability Celltiter-Glo: Mean EC50. The method, then: Plates were incubated at 37° C., 5% CO2 for 48 hours. After 48 hours, Celltiter-Glo® (Promega) was added to each well and luciferase signal was quantified using Tecan Infinite M1000 Pro for cell viability determination.
For chemical structures that include one or more stereoisomers, but are illustrated without indicating stereochemistry, the assay data refers to a mixture of stereoisomers.

The test system of assay [6] is human multiple myeloma cell line U266B1. Briefly: U266 Cell Viability Assay. The settings on record: U-266, 48 hr, U266B1 cells, Celltiter-Glo, read-out: 48 hr U266 Viability Celltiter-Glo: Mean EC50. In short, it runs like this: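 U266B1 myeloma cells treated with compound dilutions in DMSO/media for 48 h at 37 °C, 5% CO2. Viability read by CellTiter-Glo luminescence. Stereochemically undefined structures were tested as stereoisomer mixtures.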

Bounds are passed on as bounds.

The term EC50 denotes the midpoint of the concentration-response curve. Consider `CC(C)OC(C)(C)c1csc(NC(=O)c2cc(C(=O)N(C)C)cn2Cc2ccncc2)n1` [Compound A111, N2-(4-(2-isopropoxypropan-2-yl)thiazol-2-yl)-N4,N4-dimethyl-1-(pyridin-4-ylmethyl)-1H-pyrrole-2,4-dicarboxamide], for which the IC50 in assay [1], in assay [2], in assay [3] and in assay [4] was above 25 µM each time. Also, the EC50 in assay [5] and in assay [6] was above 25 µM each time.

On to `CC(C)OC(C)(C)c1csc(NC(=O)c2ccnn2Cc2ccncc2)n1` [Compound A112, N-(4-(2-isopropoxypropan-2-yl)thiazol-2-yl)-1-(pyridin-4-ylmethyl)-1H-pyrazole-5-carboxamide], for which the IC50 in assay [1], in assay [2], in assay [3] and in assay [4] was above 25 µM throughout. The EC50 in assay [5] and in assay [6] was above 25 µM each time.

`CC(C)OC(C)(C)c1csc(NC(=O)c2cc(CO)cn2Cc2ccncc2)n1` [Compound A113, 4-(hydroxymethyl)-N-(4-(2-isopropoxypropan-2-yl)thiazol-2-yl)-1-(pyridin-4-ylmethyl)-1H-pyrrole-2-carboxamide]: the IC50 in assay [1], in assay [2], in assay [3] and in assay [4] was above 25 µM throughout. Also, the EC50 in assay [5] and in assay [6] was above 25 µM each time.

For the compound `CC(=O)Nc1ccc(Cn2cccc2C(=O)Nc2nc(C(C)(C)OC(C)C)cs2)cc1` [Compound A114, 1-(4-acetamidobenzyl)-N-(4-(2-isopropoxypropan-2-yl)thiazol-2-yl)-1H-pyrrole-2-carboxamide], the IC50 in assay [1], in assay [2], in assay [3] and in assay [4] was above 25 µM throughout. Also, the EC50 in assay [5] and in assay [6] was above 25 µM throughout.

With `O=C(Nc1nc2nccnc2s1)c1cccn1Cc1ccncc1` [Compound A115], the IC50 in assay [1], in assay [2], in assay [3] and in assay [4] was above 25 µM throughout. Also, the concentration giving a half-maximal response (EC50) in assay [5] and in assay [6] was above 25 µM each time.

With `CN(C(=O)c1cccn1Cc1ccncc1)c1nc2ccccc2s1` [Compound A116], the IC50 in assay [1], in assay [2], in assay [3] and in assay [4] was above 25 µM throughout. Further, the EC50 in assay [5] and in assay [6] was above 25 µM throughout.

In the case of `CC(C)c1csc(CNC(=O)c2cccn2Cc2ccncc2)n1` [Compound A117, N-((4-isopropylthiazol-2-yl)methyl)-1-(pyridin-4-ylmethyl)-1H-pyrrole-2-carboxamide], the IC50 in assay [1], in assay [2], in assay [3] and in assay [4] was above 25 µM each time. Also, the EC50 in assay [5] and in assay [6] was above 25 µM each time.

Take `Cc1csc(N(C)C(=O)c2cccn2Cc2ccncc2)n1` [Compound A118]: the IC50 in assay [1], in assay [2], in assay [3] and in assay [4] was above 25 µM in each case. Further, the EC50 in assay [5] and in assay [6] was above 25 µM throughout.

Turning to `O=C(Nc1ncc(CCO)s1)c1cccn1Cc1ccncc1` [Compound A119], the IC50 in assay [1], in assay [2], in assay [3] and in assay [4] was above 25 µM throughout. The EC50 in assay [5] and in assay [6] was above 25 µM throughout.

As to `O=C(Nc1nc(CCO)cs1)c1cccn1Cc1ccncc1` [Compound A120], the IC50 in assay [1], in assay [2], in assay [3] and in assay [4] was above 25 µM throughout. Besides, the EC50 in assay [5] and in assay [6] was above 25 µM in each case.

Take `O=C(Nc1nc2cccnc2s1)c1cccn1Cc1ccncc1` [Compound A121]: the IC50 in assay [1], in assay [2], in assay [3] and in assay [4] was above 25 µM in each case. The 50% effective concentration (EC50) in assay [5] and in assay [6] was above 25 µM throughout.

For the compound `CC(C)OC(C)(C)c1csc(NC(=O)c2ccn(Cc3ccncc3)c2)n1` [Compound A122, N-(4-(2-isopropoxypropan-2-yl)thiazol-2-yl)-1-(pyridin-4-ylmethyl)-1H-pyrrole-3-carboxamide], the IC50 in assay [1], in assay [2], in assay [3] and in assay [4] was above 25 µM throughout. Also, the concentration giving a half-maximal response (EC50) in assay [5] and in assay [6] was above 25 µM each time.

Take `CC(C)OC1(c2csc(NC(=O)c3cccn3Cc3ccncc3)n2)CC1` [Compound A123]: the IC50 in assay [1], in assay [2], in assay [3] and in assay [4] was above 25 µM throughout. The EC50 in assay [5] and in assay [6] was above 25 µM throughout.

As for `CC(C)OC(C)(C)c1csc(NC(=O)c2cccn2Cc2ccc(=O)n(C)c2)n1` [Compound A124, N-(4-(2-isopropoxypropan-2-yl)thiazol-2-yl)-1-((1-methyl-6-oxo-1,6-dihydropyridin-3-yl)methyl)-1H-pyrrole-2-carboxamide], the IC50 in assay [1], in assay [2], in assay [3] and in assay [4] was above 25 µM each time. Further, the 50% effective concentration (EC50) in assay [5] and in assay [6] was above 25 µM each time.

For `COc1cc(Cn2cccc2C(=O)Nc2nc(C(C)(C)OC(C)C)cs2)ccn1` [Compound A125, N-(4-(2-isopropoxypropan-2-yl)thiazol-2-yl)-1-((2-methoxypyridin-4-yl)methyl)-1H-pyrrole-2-carboxamide], the IC50 in assay [1], in assay [2], in assay [3] and in assay [4] was above 25 µM in each case. The concentration giving a half-maximal response (EC50) in assay [5] and in assay [6] was above 25 µM each time.

`CC(C)OC(C)(C)c1csc(NC(=O)c2cccn2Cc2ccn(C)c(=O)c2)n1` [Compound A127, N-(4-(2-isopropoxypropan-2-yl)thiazol-2-yl)-1-((1-methyl-2-oxo-1,2-dihydropyridin-4-yl)methyl)-1H-pyrrole-2-carboxamide]: the IC50 in assay [1], in assay [2], in assay [3] and in assay [4] was above 25 µM throughout. The half-maximal effective concentration (EC50) in assay [5] and in assay [6] was above 25 µM each time.

For `CC(=O)N1CCC(Cn2cccc2C(=O)Nc2nc(C(C)(C)OC(C)C)cs2)CC1` [Compound A128, 1-((1-acetylpiperidin-4-yl)methyl)-N-(4-(2-isopropoxypropan-2-yl)thiazol-2-yl)-1H-pyrrole-2-carboxamide], the IC50 in assay [1], in assay [2], in assay [3] and in assay [4] was above 25 µM in each case. Besides, the EC50 in assay [5] and in assay [6] was above 25 µM each time.

For the compound `CC(C)OC(C)(C)c1csc(NC(=O)c2cccn2CC2CCN(C)CC2)n1` [Compound A129, N-(4-(2-isopropoxypropan-2-yl)thiazol-2-yl)-1-((1-methylpiperidin-4-yl)methyl)-1H-pyrrole-2-carboxamide], the IC50 in assay [1], in assay [2], in assay [3] and in assay [4] was above 25 µM each time. For the same compound, the half-maximal effective concentration (EC50) in assay [5] and in assay [6] was above 25 µM throughout.

For the compound `CCc1nc(NC(=O)c2cccn2Cc2cccnc2)sc1C` [Compound A131, N-(4-ethyl-5-methylthiazol-2-yl)-1-(pyridin-3-ylmethyl)-1H-pyrrole-2-carboxamide], the IC50 in assay [1], in assay [2], in assay [3] and in assay [4] was above 25 µM throughout. The EC50 in assay [5] and in assay [6] was above 25 µM each time.

Regarding `O=C(Nc1nc(C#Cc2ccccc2)cs1)c1cccn1Cc1ccncc1` [Compound A132], the IC50 in assay [1] was 0.15 µM; in assay [2], 1.21 µM; in assay [3] it was 0.417 µM; in assay [4] it was 0.744 µM. For the same compound, the EC50 stood at 8.85 µM in assay [5] and 9.34 µM in assay [6].
